Here are results for four compounds from PMC3682772 (MedChemComm, 2012).

Series [1] deals with tubulin. As to conditions: read-out: Inhibition of tubulin polymerization IC50; ref [34]; cited from earlier work.
Series [2] concerns HUVECs capillary-like tubule network. As to the kind of experiment: HUVEC endothelial tube disruption on Matrigel. Format: cell-based, human. As to conditions: 2 h treatment of network pre-established over 16 h.
For series [3], the system named is tubulin. The experiment in a line: Inhibition of [3H]colchicine binding to tubulin. As to conditions: inhibitor 5 µM; 1 µM tubulin, 5 µM [3H]colchicine.
Series [4] in a line: Solubility in water / D2O. Format: physicochemical.
Series [5] relates to NCI-H460 non-small cell lung cancer cell line. The experiment in a line: Cytotoxicity, SRB assay, NCI-H460. As to conditions: Homo sapiens, NCI-H460, read-out: GI50 SRB assay NCI-H460.

A word on the IC50: it is the concentration needed to halve the response being measured. By GI50 is commonly meant the concentration giving 50% growth inhibition.

As to `COc1ccc(/C=C\c2cc(OC)c(OC)c(OC)c2)c(O)c1O` [CA1, Combretastatin A-1], the IC50 in the series on tubulin [1] was 1900 nM.

As to `COc1ccc(/C=C\c2cc(OC)c(OC)c(OC)c2)cc1O` [CA4, combretastatin A-4, reference compound], in series [2] (0.01 µM), the Tubule disruption result is listed as “tubule disruption activity was detected”. For the same compound, the “Inhibition of Colchicine binding” value in the series on tubulin [3] was 100%.

On to `COc1ccc2c(c1N)CCCC=C2c1cc(OC)c(OC)c(OC)c1.Cl` [Compound 16], for which the Solubility in water result in series [4] (hydrochloride salt) is given as “limited solubility in water”. For the same compound, in series [4] (in approximately 1.0 mL of D2O (NMR study), clear solution took several days), the Amount completely dissolved entry is on record as “approximately 3 mg”.

Take `COc1ccc2c(c1N)CCCC=C2c1cc(OC)c(OC)c(OC)c1` [Compound 3]: the Tubule disruption result is “Tubule disruption and cell rounding was observed” in series [2] (0.10 µM); “greatly increased” in series [2] (1 µM). In series [5], the GI50 worked out at 4.69 nM.
